Values of other authors in EP4088714A1, “OPHTHALMIC PHARMACEUTICAL COMPOSITION COMPRISING ATROPINE” (Warszawskie Zaklady Farmaceutyczne Polfa S.A., priority 2021, dated 2022).

In the case of `CN1[C@@H]2CC[C@H]1C[C@@H](OC(=O)C(CO)c1ccccc1)C2` (some centres unmarked) [atropine, Atropine], the “need for photochromatic glasses” value (concentrations 0.01% to 0.05%, treated patients, two years of treatment) is given as “higher than 30%” and the tolerability (concentrations ranging from 0.01% to 0.05%, 383 children, after two years of treatment) is given as “well tolerated”.
